# Measured values reported in ChEMBL document CHEMBL4507262, “Data for DCP probe A-1596586” (2021).
# Active and inactive are the calls of the source. The calls are words filed in the database; no cut-off is given here.
# How the values were obtained:
# [1] = biological target: Dual specificity protein kinase CLK2 (Homo sapiens) (UniProt P49760); conditions: Compound concentration 1000.0 nM
# [2] = biological target: Dual specificity tyrosine-phosphorylation-regulated kinase 1A (Homo sapiens) (UniProt Q13627); conditions: Compound concentration 1000.0 nM
# [3] = biological target: Calcium/calmodulin-dependent protein kinase kinase 1 (Homo sapiens) (UniProt Q8N5S9); conditions: Compound concentration 1000.0 nM
# Sequence of Calcium/calmodulin-dependent protein kinase kinase 1 (Homo sapiens) (Q8N5S9 whole entry, looked up): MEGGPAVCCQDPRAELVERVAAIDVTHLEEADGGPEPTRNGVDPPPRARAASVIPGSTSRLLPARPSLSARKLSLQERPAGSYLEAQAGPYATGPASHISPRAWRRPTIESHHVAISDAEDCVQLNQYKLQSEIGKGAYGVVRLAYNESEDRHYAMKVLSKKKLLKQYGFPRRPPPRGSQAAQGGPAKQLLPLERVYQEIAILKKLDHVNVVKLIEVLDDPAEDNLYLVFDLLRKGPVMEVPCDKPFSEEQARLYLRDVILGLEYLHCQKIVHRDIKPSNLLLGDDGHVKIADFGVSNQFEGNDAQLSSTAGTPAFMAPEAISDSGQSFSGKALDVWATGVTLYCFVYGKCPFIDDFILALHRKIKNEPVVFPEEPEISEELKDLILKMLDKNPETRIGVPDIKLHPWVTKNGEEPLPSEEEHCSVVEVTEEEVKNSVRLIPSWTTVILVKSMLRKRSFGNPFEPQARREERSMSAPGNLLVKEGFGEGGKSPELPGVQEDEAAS
# [4] = biological target: Serine/threonine-protein kinase Nek10 (Homo sapiens) (UniProt Q6ZWH5); conditions: Compound concentration 1000.0 nM
# [5] = biological target: Ephrin type-A receptor 7 (Homo sapiens) (UniProt Q15375); conditions: Compound concentration 1000.0 nM
# [6] = biological target: Serine/threonine-protein kinase 17A (Homo sapiens) (UniProt Q9UEE5); conditions: Compound concentration 1000.0 nM
# [7] = biological target: Mitogen-activated protein kinase 9 (Homo sapiens) (UniProt P45984); conditions: Compound concentration 1000.0 nM
# [8] = biological target: Glycogen synthase kinase-3 beta (Homo sapiens) (UniProt P49841); conditions: Compound concentration 1000.0 nM
# Sequence of Glycogen synthase kinase-3 beta (Homo sapiens) (P49841 whole entry, looked up): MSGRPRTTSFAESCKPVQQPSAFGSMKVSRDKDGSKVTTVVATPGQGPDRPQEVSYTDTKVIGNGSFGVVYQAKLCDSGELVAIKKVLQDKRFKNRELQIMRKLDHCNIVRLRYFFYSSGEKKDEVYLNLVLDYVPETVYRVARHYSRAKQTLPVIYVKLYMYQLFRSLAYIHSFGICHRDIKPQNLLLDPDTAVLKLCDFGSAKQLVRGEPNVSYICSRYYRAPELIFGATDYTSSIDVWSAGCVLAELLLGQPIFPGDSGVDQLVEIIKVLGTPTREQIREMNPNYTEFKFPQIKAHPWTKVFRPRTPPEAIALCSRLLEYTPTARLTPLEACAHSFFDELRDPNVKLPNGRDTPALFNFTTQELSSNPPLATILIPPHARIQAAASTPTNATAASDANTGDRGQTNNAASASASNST
# [9] = biological target: Mitogen-activated protein kinase kinase kinase 6 (Homo sapiens) (UniProt O95382); conditions: Compound concentration 1000.0 nM
# [10] = biological target: Ephrin type-A receptor 6 (Homo sapiens) (UniProt Q9UF33); conditions: Compound concentration 1000.0 nM
# [11] = biological target: T1, Cystic fibrosis transmembrane conductance regulator (Homo sapiens, UniProt P13569); assay: CSE-HRP cell viability (Cell surface expression-horseradish peroxidase) assay
# T1 sequence (P13569 whole entry): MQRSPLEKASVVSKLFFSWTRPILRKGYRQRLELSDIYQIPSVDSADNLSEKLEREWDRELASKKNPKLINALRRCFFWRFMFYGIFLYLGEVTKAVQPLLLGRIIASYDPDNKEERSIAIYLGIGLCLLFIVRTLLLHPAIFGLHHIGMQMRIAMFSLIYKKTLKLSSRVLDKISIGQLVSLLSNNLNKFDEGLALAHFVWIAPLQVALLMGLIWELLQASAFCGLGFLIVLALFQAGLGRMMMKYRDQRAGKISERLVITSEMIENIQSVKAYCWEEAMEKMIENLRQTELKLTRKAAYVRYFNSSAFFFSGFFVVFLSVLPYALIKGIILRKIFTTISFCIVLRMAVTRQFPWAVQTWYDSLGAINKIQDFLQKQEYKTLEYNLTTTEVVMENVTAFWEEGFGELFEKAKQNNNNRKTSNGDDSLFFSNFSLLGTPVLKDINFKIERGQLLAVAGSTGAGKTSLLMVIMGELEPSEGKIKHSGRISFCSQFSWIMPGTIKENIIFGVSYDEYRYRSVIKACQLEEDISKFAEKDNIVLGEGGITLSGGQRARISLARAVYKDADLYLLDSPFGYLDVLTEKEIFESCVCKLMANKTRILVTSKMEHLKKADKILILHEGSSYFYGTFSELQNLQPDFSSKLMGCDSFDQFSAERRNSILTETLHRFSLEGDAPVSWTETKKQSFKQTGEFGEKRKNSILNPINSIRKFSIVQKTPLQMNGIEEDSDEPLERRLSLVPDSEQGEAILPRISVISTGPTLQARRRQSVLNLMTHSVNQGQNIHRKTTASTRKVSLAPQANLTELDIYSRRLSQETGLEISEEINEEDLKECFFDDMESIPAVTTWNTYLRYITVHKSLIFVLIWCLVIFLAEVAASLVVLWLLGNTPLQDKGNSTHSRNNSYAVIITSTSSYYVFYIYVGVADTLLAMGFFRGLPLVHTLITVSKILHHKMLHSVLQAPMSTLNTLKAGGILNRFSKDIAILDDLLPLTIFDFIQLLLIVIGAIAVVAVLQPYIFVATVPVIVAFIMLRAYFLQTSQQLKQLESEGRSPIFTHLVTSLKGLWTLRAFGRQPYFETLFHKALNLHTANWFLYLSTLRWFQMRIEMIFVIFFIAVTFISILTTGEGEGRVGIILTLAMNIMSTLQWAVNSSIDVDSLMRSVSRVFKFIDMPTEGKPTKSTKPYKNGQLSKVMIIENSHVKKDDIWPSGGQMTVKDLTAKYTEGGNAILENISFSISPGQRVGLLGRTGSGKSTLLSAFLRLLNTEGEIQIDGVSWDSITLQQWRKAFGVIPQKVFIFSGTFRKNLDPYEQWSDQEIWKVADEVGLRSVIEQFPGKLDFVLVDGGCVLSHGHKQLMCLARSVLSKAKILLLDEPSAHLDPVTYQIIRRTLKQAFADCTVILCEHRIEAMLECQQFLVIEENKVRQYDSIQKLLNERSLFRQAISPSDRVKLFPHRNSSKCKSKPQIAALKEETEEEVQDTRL
# [12] = biological target: Tyrosine-protein kinase TXK (Homo sapiens) (UniProt P42681); conditions: Compound concentration 1000.0 nM
# [13] = biological target: Atypical kinase COQ8A, mitochondrial (Homo sapiens) (UniProt Q8NI60); conditions: Compound concentration 1000.0 nM
# [14] = biological target: Serine/threonine-protein kinase PAK 5 (Homo sapiens) (UniProt Q9P286); conditions: Compound concentration 1000.0 nM
# Sequence of Serine/threonine-protein kinase PAK 5 (Homo sapiens) (Q9P286 whole entry, looked up): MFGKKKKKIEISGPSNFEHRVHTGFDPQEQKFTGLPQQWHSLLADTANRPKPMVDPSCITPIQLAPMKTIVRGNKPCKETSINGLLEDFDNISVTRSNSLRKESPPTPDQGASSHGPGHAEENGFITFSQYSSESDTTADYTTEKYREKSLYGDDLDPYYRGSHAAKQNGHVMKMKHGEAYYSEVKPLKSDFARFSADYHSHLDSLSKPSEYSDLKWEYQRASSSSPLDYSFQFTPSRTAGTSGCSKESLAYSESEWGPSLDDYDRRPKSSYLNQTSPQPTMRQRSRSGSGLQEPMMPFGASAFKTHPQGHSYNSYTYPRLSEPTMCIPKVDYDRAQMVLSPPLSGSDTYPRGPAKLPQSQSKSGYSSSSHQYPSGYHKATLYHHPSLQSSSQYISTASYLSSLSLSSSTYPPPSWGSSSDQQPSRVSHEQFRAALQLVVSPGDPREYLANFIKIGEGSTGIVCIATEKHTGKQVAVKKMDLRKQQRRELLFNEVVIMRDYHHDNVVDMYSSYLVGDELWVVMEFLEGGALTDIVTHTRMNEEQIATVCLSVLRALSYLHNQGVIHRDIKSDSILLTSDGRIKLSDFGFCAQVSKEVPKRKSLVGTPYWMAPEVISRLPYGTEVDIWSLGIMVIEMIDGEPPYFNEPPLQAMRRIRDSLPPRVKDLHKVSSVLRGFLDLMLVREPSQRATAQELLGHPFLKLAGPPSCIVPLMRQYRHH
# [15] = biological target: L-type Ca2+ channel (diltiazem site, benzothiazepines) (Rattus norvegicus, UniProt P22002+P27732+Q02485); assay: Ca2+ channel (L, diltiazem site) (benzothiazepines) Eurofins-Cerep binding assay; assay type: protein assay; design: incubation time 120 min, incubation temperature RT, ligand concentration 15 nM; conditions: rat cerebral cortex, probe [3H]diltiazem (15 nM), compound concentration 10 uM, read-out: % Inhibition of Control Specific Binding (Mean n=2)
# [16] = biological target: D(1B) dopamine receptor (Homo sapiens) (UniProt P21918); conditions: Compound concentration 10.0 uM
# [17] = biological target: 1-phosphatidylinositol 3-phosphate 5-kinase (Homo sapiens) (UniProt Q9Y2I7); conditions: Compound concentration 1000.0 nM
# [18] = biological target: Vascular endothelial growth factor receptor 3 (Homo sapiens) (UniProt P35916); conditions: Compound concentration 1000.0 nM
# [19] = biological target: T2, Muscarinic acetylcholine receptor M5 (Homo sapiens) (UniProt P08912); conditions: Compound concentration 10.0 uM
# T2 sequence (whole entry): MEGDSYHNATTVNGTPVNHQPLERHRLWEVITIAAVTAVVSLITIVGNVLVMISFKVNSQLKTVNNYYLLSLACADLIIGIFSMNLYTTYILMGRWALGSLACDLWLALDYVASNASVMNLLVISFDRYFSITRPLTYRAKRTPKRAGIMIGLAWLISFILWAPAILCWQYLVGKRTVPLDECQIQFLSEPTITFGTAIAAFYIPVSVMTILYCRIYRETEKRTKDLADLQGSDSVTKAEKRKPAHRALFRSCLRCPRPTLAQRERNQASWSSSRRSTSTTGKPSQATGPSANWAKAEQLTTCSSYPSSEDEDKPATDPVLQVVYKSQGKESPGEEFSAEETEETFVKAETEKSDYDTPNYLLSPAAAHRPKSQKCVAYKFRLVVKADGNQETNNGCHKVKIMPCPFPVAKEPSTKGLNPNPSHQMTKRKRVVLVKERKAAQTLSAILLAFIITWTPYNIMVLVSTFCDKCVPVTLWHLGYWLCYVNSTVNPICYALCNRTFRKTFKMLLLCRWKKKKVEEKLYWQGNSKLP
# [20] = biological target: Mitotic checkpoint serine/threonine-protein kinase BUB1 (Homo sapiens) (UniProt O43683); conditions: Compound concentration 1000.0 nM
# [21] = biological target: Tyrosine-protein kinase Fer (Homo sapiens) (UniProt P16591); conditions: Compound concentration 1000.0 nM
# Sequence of Tyrosine-protein kinase Fer (Homo sapiens) (P16591 whole entry, looked up): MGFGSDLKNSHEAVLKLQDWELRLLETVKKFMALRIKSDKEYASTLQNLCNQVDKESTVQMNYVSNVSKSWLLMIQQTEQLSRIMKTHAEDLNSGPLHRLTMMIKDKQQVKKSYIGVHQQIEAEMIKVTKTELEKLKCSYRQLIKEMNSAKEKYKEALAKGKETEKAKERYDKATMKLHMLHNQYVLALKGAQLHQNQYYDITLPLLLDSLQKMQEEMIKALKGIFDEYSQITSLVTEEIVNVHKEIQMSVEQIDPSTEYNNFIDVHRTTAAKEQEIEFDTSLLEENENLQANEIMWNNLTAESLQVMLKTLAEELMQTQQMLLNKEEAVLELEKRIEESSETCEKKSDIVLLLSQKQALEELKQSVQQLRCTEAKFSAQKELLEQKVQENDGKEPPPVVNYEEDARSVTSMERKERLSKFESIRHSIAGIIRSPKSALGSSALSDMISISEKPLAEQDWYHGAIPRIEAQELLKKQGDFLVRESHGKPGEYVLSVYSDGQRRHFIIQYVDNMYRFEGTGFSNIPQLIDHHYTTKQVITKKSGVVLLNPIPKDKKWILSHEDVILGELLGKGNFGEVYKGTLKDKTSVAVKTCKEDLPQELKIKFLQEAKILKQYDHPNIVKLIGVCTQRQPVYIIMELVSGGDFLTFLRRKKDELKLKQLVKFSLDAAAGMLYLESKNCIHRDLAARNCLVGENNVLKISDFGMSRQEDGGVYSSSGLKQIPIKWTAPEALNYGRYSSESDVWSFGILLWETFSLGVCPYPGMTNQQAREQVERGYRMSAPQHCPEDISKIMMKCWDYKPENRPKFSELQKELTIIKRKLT
# [22] = biological target: Mitogen-activated protein kinase kinase kinase 12 (Homo sapiens) (UniProt Q12852); conditions: Compound concentration 1000.0 nM
# [23] = biological target: Calcium/calmodulin-dependent protein kinase type 1B (Homo sapiens) (UniProt Q6P2M8); conditions: Compound concentration 1000.0 nM
# [24] = biological target: Homeodomain-interacting protein kinase 3 (Homo sapiens) (UniProt Q9H422); conditions: Compound concentration 1000.0 nM
# [25] = biological target: Tyrosine-protein kinase ITK/TSK (Homo sapiens) (UniProt Q08881); conditions: Compound concentration 1000.0 nM
# [26] = biological target: Serine/threonine-protein kinase Chk1 (Homo sapiens) (UniProt O14757); conditions: Compound concentration 1000.0 nM
# [27] = biological target: Serine/threonine-protein kinase 24 (Homo sapiens) (UniProt Q9Y6E0); conditions: Compound concentration 1000.0 nM
# [28] = tested on: Tyrosine-protein kinase ABL1 (Homo sapiens), P00519 [Q252H]; conditions: Compound concentration 1000.0 nM
# [29] = biological target: Histamine H1 receptor (Homo sapiens) (UniProt P35367); conditions: Compound concentration 10.0 uM
# [30] = biological target: Interferon-induced, double-stranded RNA-activated protein kinase (Homo sapiens) (UniProt P19525); conditions: Compound concentration 1000.0 nM
# Sequence of Interferon-induced, double-stranded RNA-activated protein kinase (Homo sapiens) (P19525 whole entry): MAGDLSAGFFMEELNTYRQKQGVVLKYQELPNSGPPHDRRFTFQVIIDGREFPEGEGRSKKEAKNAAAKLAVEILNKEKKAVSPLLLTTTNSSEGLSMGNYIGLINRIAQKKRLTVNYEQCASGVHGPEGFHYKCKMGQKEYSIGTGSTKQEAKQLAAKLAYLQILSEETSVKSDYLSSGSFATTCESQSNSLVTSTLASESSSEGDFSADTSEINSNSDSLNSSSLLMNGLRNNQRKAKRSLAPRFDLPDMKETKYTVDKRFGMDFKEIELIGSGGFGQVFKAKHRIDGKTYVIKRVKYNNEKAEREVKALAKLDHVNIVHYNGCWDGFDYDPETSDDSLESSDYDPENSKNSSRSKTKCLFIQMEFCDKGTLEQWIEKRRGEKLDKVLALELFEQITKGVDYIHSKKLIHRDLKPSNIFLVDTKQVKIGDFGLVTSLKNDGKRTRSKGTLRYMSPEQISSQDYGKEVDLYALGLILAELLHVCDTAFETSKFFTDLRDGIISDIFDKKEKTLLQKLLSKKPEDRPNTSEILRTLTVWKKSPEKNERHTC
# [31] = biological target: Inhibitor of nuclear factor kappa-B kinase subunit epsilon (Homo sapiens) (UniProt Q14164); conditions: Compound concentration 1000.0 nM
# [32] = biological target: Adenosine receptor A3 (Homo sapiens) (UniProt P0DMS8); assay: A3 (h) Eurofins-Cerep binding assay; design: ligand concentration 0.15 nM; conditions: filed as agonist, Compound concentration 10.0 uM
# [33] = biological target: GABA-A receptor; anion channel (Rattus norvegicus) (UniProt O09028+P15431+P18506+P18508+P19969+P20236+P23574+P23576+P28471+P28473+P30191+P62813+P63079+P63138+Q91ZM7+Q9ES14); conditions: Compound concentration 10.0 uM
# [34] = biological target: T1, Cystic fibrosis transmembrane conductance regulator; assay: CSE-HRP surface expression (Cell surface expression-horseradish peroxidase) assay
# [35] = biological target: Cyclin-dependent kinase 19 (Homo sapiens) (UniProt Q9BWU1); conditions: Compound concentration 1000.0 nM
# Sequence of Cyclin-dependent kinase 19 (Homo sapiens) (Q9BWU1 whole entry): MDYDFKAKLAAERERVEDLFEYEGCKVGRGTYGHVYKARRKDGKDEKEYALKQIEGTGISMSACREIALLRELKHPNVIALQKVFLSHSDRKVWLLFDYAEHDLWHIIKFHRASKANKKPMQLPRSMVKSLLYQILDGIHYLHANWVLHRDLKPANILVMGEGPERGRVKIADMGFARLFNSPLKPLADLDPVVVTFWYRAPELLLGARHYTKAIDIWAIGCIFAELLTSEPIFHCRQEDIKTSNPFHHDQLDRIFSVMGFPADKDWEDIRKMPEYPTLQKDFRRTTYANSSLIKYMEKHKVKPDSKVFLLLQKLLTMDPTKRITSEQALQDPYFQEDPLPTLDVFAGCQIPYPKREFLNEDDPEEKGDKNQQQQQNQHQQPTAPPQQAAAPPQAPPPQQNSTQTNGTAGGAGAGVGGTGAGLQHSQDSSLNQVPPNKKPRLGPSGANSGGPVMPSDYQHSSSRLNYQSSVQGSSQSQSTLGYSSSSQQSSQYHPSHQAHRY
Structure (SMILES),residual activity [1],residual activity [2],residual activity [3],residual activity [4],residual activity [5],residual activity [6],residual activity [7],residual activity [8],residual activity [9],residual activity [10],EC50 [11],residual activity [12],residual activity [13],residual activity [14],"inhibition at 120 min, 10 µM [15]",inhibition [16],residual activity [17],residual activity [18],inhibition [19],residual activity [20],other results
COc1ccc2c(c1)O[C@@H](c1ccc(OC)c(OC)c1)C[C@H]2NC(=O)C1(c2ccc3c(c2)OC(F)(F)O3)CC1 [A-1596586],96%,80%,89%,86%,86%,100%,83%,92%,81%,89%,> 20 µM (not active),97%,87%,75%,29.7%,20.7%,100%,91%,2.95%,99%,residual activity [21]: 100%; residual activity [22]: 80%; residual activity [23]: 100%; residual activity [24]: 77%; residual activity [25]: 86%; residual activity [26]: 100%; residual activity [27]: 96%; residual activity [28]: 93%; inhibition [29]: 22.3%; residual activity [30]: 100%; residual activity [31]: 70%; % Inhibition of Control Specific Binding (Mean n=2) [32]: 63.9%; inhibition [33]: 11.1%; EC50 [34]: 0.13 µM (active); residual activity [35]: 93%
COc1ccc2c(c1)O[C@H](c1ccc(OC)c(OC)c1)C[C@@H]2NC(=O)C1(c2ccc3c(c2)OC(F)(F)O3)CC1 [A-1596584],95%,100%,100%,100%,100%,100%,92%,100%,81%,100%,> 20 µM (not active),95%,100%,100%,-7.6%,20%,89%,97%,16.1%,100%,residual activity [21]: 100%; residual activity [22]: 87%; residual activity [23]: 100%; residual activity [24]: 91%; residual activity [25]: 100%; residual activity [26]: 100%; residual activity [27]: 92%; residual activity [28]: 100%; inhibition [29]: 49.9%; residual activity [30]: 100%; residual activity [31]: 96%; % Inhibition of Control Specific Binding (Mean n=2) [32]: 67.7%; inhibition [33]: -8.42%; EC50 [34]: 1 µM (not active); residual activity [35]: 94%
